The test system of assay [1] is TNFα release by human PBMCs. The experiment in a line: Cytokine release by LPS-stimulated human PBMCs (TNFα ELISA). The format is cell-based. To be noted: PBMC, LPS 1 μg/mL, 24 hr. The method, then: Human peripheral blood mononuclear cells (PBMCs) are isolated from “buffy coats” prepared from the blood of healthy volunteers, isolated essentially according to method of Bøyum (1984). In brief, buffy coat is diluted 1:1 with 1×PBS (Gibco) and 30 mL is carefully put on top of 20 mL Lymphoprep™ (Lucron Bioproducts) in 50 mL Falcon tubes. After centrifugation (35 min, 400 g, 18° C.) the mononuclear cells are collected from the white interphase and washed 3 times with 1×PBS by resuspending and centrifugation (10 min, 200 g). Isolated PBMCs are finally resuspended in RPMI 1640 (Cat. No. 21875, Gibco) that is supplemented with 10% heat-inactivated FBS (Hyclone).
For the assay PBMCs are seeded at 2.5E6 cells/mL in 160 μL in 96-well plates (Nunc). Serial dilution of the test compounds are made first in DMSO (Sigma) and then diluted 50-fold in M199 medium (Gibco) containing 1% heat-inactivated FBS. Compounds are further 1/10 diluted in the assay plates to obtain final DMSO concentration of 0.2%. Cells are preincubated with the compounds for 1 hr at 37° C., 5% CO2. Then, cells are stimulated with LPS (Escherichia coli serotype 026:B6, Cat. No. L2654, Sigma) that is added in a volume of 20 μL to a final concentration of 1 μg/mL and cells are further cultured for 24 hr. The plates are centrifuged and the supernatant is collected and stored at −80° C. until analysis of appropriate dilutions in ELISAs.
The following 384-well chemiluminescent ELISA protocol was developed to measure TNFα levels in the supernatant: White Lumitrac 600 384-well plates (Greiner) are coated with (40 μL/well) anti-TNFα capture antibody (Cat. No. 551220, BD Pharmingen) that is diluted to 1 μg/mL in 1×PBS (Gibco). After overnight incubation at 4° C., plates are washed with 1×PBS (80 g NaCl, 2 g KCl (Sigma), 11.5 g Na2HPO4.7H2O and 2 g KH2PO4 in 10 L milliQ; pH 7.4) and blocked with 100 μL/well buffer B (1×PBS containing 1% BSA (Sigma), 5% sucrose (Sigma) and 0.05% NaN3 (Sigma)). After 4 hr incubation at RT, blocking buffer is removed and plates are washed once with PBST (1×PBS with 0.05% Tween-20 (Sigma)). Then, 40 μL of sample is transferred to the ELISA plates and plates are incubated at 4° C. Next day, plates are washed 3 times (twice with PBST and once with PBS) and 35 μL/well biotinylated anti-TNFα antibody (Cat. No. 554511, BD Pharmingen) diluted first to a concentration of 250 ng/ml in buffer D (1×PBS with 1% BSA) is added. After 2 h of incubation at RT, plates are washed as described above and 35 μL/well of a 1/2000 dilution of streptavidin-HRP conjugate (Cat. No. SNN2004, Biosource) in buffer D is added. After 45 min, plates are washed as described above and incubated for 5 min with 50 μL/well BM Chemiluminescence ELISA Substrate POD (Roche). Readout is performed on the Luminoscan Ascent Luminometer (Labsystems) with an integration time of 100 msec delivering raw data (RLU: relative luminescence units). The following controls are included in the experiments, a maximal signal control, in which the cells are activated by LPS but only the 0.2% DMSO vehicle (and thus no compound) is added. This control indicates the maximal level of TNFα that can be achieved in the test. A minimal signal control is also included in these experiments. Here, cells are not triggered. This control returns the basal TNFα levels produced by the PBMCs. The percent inhibition (PIN) of the TNFα release, achieved by the compounds is then calculated based on the RLU data returned by the ELISA with following formula: 100−[((TNFα level compound X at concentration Y−minimal TNFα levels)/(maximal TNFα levels−minimal TNFα levels))×100]. Where compounds are tested at 8 concentrations (1/3 serial dilution), EC50-values can be calculated by curve fitting of the means of the PIN data achieved for a compound at each test concentration. […]

Assay [2] deals with MMP1 expression by SFs. The experiment in a line: 'MMP assay': MMP1 expression by 'complex trigger' activated synovial fibroblasts (MMP1 ELISA). The assay is classed as cell-based, human. Particulars: Homo sapiens, Fibroblast, RASFs, 48 hrs. (An ELISA detects its analyte on a solid surface through an enzyme-linked reagent.)

The structures appear in SMILES notation. Bounds are passed on as bounds.

As a reminder, the EC50 is the midpoint of the concentration-response curve.

On to `O=c1cc(-c2cnc(Nc3ccc(N4CCOCC4)cc3)c3nccn23)cc[nH]1` [Compound 85, 4-[8-(4-Morpholin-4-yl-phenylamino)imidazo[1,2-a]pyrazin-5-yl]-1H-pyridin-2-one], for which the EC50 is greater than 1 µM in assay [1] and 0.501 to 1 µM in assay [2].
Taken in the same sequence, the figures for `CN1CCN(c2ccc(Nc3ncc(-c4cc[nH]c(=O)c4)n4ccnc34)cc2)CC1` [Compound 102, 4-{8-[4-(4-Methylpiperazin-1-yl)-phenylamino]imidazo[1,2-a]pyrazin-5-yl}-1H-pyridin-2-one] were greater than 1 µM and greater than 1 µM.
Taken in the same sequence, the figures for `c1cn2c(-c3cn[nH]c3)cnc(Nc3ccc(N4CCOCC4)cc3)c2n1` [Compound 1, (4-Morpholin-4-yl-phenyl)-[5-(1H-pyrazol-4-yl)-imidazo[1,2-a]pyrazin-8-yl]-amine] were greater than 1 µM and greater than 1 µM.
As for `NC(=O)c1ccc(-c2cnc(Nc3ccc(N4CCOCC4)cc3)c3nccn23)cc1` [Compound 13], the EC50 in assay [1] was greater than 1 µM; in assay [2] it was 0.501 to 1 µM.
With `NC(=O)c1cc(-c2cnc(Nc3ccc(N4CCOCC4)cc3)c3nccn23)co1` [Compound 203], the EC50 in assay [1] was greater than 1 µM; in assay [2] it was 0.501 to 1 µM.
As to `NC(=O)c1cc(-c2cnc(Nc3ccc(N4CCOCC4)cc3)c3nccn23)cs1` [Compound 177, 4-[8-(4-Morpholin-4-yl-phenylamino)-imidazo[1,2-a]pyrazin-5-yl]-thiophene-2-carboxylic acid amide], the EC50 in assay [1] is greater than 1 µM; in assay [2], 0.101 to 0.5 µM.
Taken in the same sequence, the figures for `NC(=O)c1coc(-c2cnc(Nc3ccc(N4CCOCC4)cc3)c3nccn23)c1` [Compound 179, 5-[8-(4-Morpholin-4-yl-phenylamino)-imidazo[1,2-a]pyrazin-5-yl]-furan-3-carboxylic acid amide] were greater than 1 µM and 0.101 to 0.5 µM.

Values taken from patent US8178530B2, “Imidazolopyrazine compounds useful for the treatment of degenerative and inflammatory diseases” (Janssen Pharmaceutica NV, priority 2006, dated 2012).
